# In patent US11613531B2, “Inhibitors of RHO associated coiled-coil containing protein kinase” (Kadmon Corporation, LLC, priority 2017, dated 2023):
# Read-outs that look alike come from different tables or passages of the source.
# Experiments:
# [1] = target: Recombinant ROCK2 (amino acids 1-552) (Homo sapiens (Human), UniProt O75116); experiment: Z′-Lyte kinase assay, ROCK2; assay type: biochemical; conditions: for inhibition at 1 µM: 1 μM compound; for inhibition at 1 µM / inhibition at 0.5 µM: read-out: ROCK2 % inh. @ [conc]; for inhibition at 0.5 µM: 0.5 μM compound
# Method: Determination of Compound's ROCK Inhibitory Activity In Vitro (Z'Lyte Assay).
# Recombinant ROCK1 (amino acids 1-535) and ROCK2 (amino acids 1-552) proteins were purchased from ThermoFisher Scientific. Compound's activities were measured by Z′-lyte kinase kit (ThermoFisher Scientific) and IC50 was calculated
# (§1) In vitro activities for the compounds were measured with Z′-lyte kinase kit (ThermoFisher Scientific). The percent inhibition rate was calculated by normalizing the kinase activity value obtained with 1 μM compound treatment against DMSO control value and then applied to the formula, [1-(compound/DMSO)]×100%. IC50s were calculated using the nonlinear regression curve fit function of the GraphPad Prism software with kinase activities data measured with 9 points 2-fold serial dilution of compounds treatment. In cell pMLC IC50s were calculated with data obtained from A7R5 cell experiments. A7R5 cells were treated with 9 points 2-fold serial dilution of compounds and ppMlc (T18/S19) levels were determined to calculate cellular IC50 values of the compounds using the nonlinear regression curve fit function of the GraphPad Prism software. NIH3T3 cells stably expressing ACTA2-promoter-driven-luciferase were applied to measure ROCK compounds functional IC50s in cells. Cells were plated in 96 well plates to confluence and treated with 9 points serial dilution of compounds in combination with TGFβ1 for 24 hr. Luciferase activities were measured and compound's IC50s were calculated using the nonlinear regression curve fit function of the GraphPad Prism software.
# [2] = system: ppMlc (T18/S19) levels in A7R5 cells; experiment: A7R5 in-cell ELISA (pMLC); assay type: cell-based, Rat; conditions: for inhibition at 10 µM / IC50: Rattus norvegicus, A7R5, A7R5 cells; for inhibition at 10 µM: read-out: pMLC % inh A7R5 @ [conc]; for IC50: ppMlc (T18/S19)
# Method: Determination of Compounds ROCK Inhibitory Activity in A7R5Cells.
# Rat aortic smooth muscle cell line, A7R5, cells were seeded with density of 5,000 cells/well in a 96-well plates for 24 hours and subsequently treated for 90 min with testing compounds. Cells were then fixed and processed according to the In-Cell ELISA Colorimetric Detection Kit manual (Thermo Scientific).
# An A7R5 in-cell Elisa assay was performed. A7R5 cells were treated with 9 points 2 fold serial dilution of compounds and ppMlc (T18/S19) levels were determined to calculate cellular IC50 values of the compounds. Compounds of the invention gave in cell IC50s under 100 nM.
# as §1
# Chain of Recombinant ROCK2 (amino acids 1-552) (O75116 1-552): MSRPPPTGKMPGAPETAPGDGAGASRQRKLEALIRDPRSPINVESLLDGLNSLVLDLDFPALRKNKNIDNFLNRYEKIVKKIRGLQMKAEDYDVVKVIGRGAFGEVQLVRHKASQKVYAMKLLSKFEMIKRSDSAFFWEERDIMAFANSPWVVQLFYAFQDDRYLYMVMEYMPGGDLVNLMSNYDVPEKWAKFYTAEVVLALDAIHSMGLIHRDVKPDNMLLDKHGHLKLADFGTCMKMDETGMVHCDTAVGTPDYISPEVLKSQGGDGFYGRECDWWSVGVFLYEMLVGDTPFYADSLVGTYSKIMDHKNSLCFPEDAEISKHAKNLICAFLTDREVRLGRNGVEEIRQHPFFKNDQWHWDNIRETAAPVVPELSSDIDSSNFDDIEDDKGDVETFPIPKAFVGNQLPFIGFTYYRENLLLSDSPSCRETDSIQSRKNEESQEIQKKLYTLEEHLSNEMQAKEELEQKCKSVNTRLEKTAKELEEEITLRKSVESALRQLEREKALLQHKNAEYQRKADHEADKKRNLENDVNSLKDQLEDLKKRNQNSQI
structure (smiles),measurement,setting,value
"Clc1cnc(N2CCCNCC2)nc1Nc1ccc2[nH]ncc2c1 [Example 4, N-(5-chloro-2-(1,4-diazepan-1-yl)pyrimidin-4-yl)-1H-indazol-5-amine]",IC50,[1]; 9 points 2-fold serial dilution,139 nM
same,inhibition at 10 µM,[2]; 10 μM compound,95.3%
same,IC50,[2],312 nM
"c1ccc2c(Nc3ccc4[nH]ncc4c3)nc(N3CCCNCC3)nc2c1 [Example 6, 2-(1,4-diazepan-1-yl)-N-(1H-indazol-5-yl)quinazolin-4-amine]",inhibition at 1 µM,[1],85.7%
same,inhibition at 10 µM,[2]; 10 μM compound,94.6%
same,IC50,[2],1800 nM
"Cc1nc(N2CCCNCC2)nc(Nc2ccc3[nH]ncc3c2)c1C [Example 8, N-(2-(1,4-diazepan-1-yl)-5,6-dimethylpyrimidin-4-yl)-1H-indazol-5-amine]",inhibition at 1 µM,[1],83.3%
same,inhibition at 10 µM,[2]; 10 μM compound,89%
same,IC50,[2],1600 nM
"c1cc2[nH]ncc2cc1Nc1nc(N2CCCNCC2)nc2c1CCCC2 [Example 9, 2-(1,4-diazepan-1-yl)-N-(1H-indazol-5-yl)-5,6,7,8-tetrahydroquinazolin-4-amine]",inhibition at 1 µM,[1],98.7%
same,inhibition at 10 µM,[2]; 10 μM compound,93.5%
same,IC50,[2],1200 nM
"c1cc2[nH]ncc2cc1Nc1nc(N2CCCNCC2)nc2c1CSC2 [Example 12, 2-(1,4-diazepan-1-yl)-N-(1H-indazol-5-yl)-5,7-dihydrothieno[3,4-d]pyrimidin-4-amine]",inhibition at 1 µM,[1],97.3%
same,inhibition at 10 µM,[2]; 10 μM compound,95%
same,IC50,[2],839 nM
"Cc1nc(N2CCNC(C)C2)nc(Nc2ccc3[nH]ncc3c2)c1C (stereo not shown) [Example 13, N-(5,6-dimethyl-2-(3-methylpiperazin-1-yl)pyrimidin-4-yl)-1H-indazol-5-amine]",inhibition at 1 µM,[1],58.1%
same,inhibition at 10 µM,[2]; 10 μM compound,51.1%
same,IC50,[2],1490 nM
"CCC1CN(c2nc(C)c(C)c(Nc3ccc4[nH]ncc4c3)n2)CCN1 (stereo not shown) [Example 14, N-(2-(3-ethylpiperazin-1-yl)-5,6-dimethylpyrimidin-4-yl)-1H-indazol-5-amine]",inhibition at 1 µM,[1],33.3%
same,inhibition at 10 µM,[2]; 10 μM compound,48.9%
"Cc1nc(N2CCNC(C(C)C)C2)nc(Nc2ccc3[nH]ncc3c2)c1C (stereo not shown) [Example 15, N-(2-(3-isopropylpiperazin-1-yl)-5,6-dimethylpyrimidin-4-yl)-1H-indazol-5-amine]",inhibition at 1 µM,[1],8%
same,inhibition at 10 µM,[2]; 10 μM compound,26.4%
"Cc1nc(N2CCNC(C(C)C)CC2)nc(Nc2ccc3[nH]ncc3c2)c1C (stereo not shown) [Example 19, N-(2-(5-isopropyl-1,4-diazepan-1-yl)-5,6-dimethylpyrimidin-4-yl)-1H-indazol-5-amine]",inhibition at 1 µM,[1],4.6%
same,inhibition at 10 µM,[2]; 10 μM compound,31.8%
"c1cc(Nc2ccc3[nH]ncc3c2)nc(N2CCOCC2)n1 [Example 33, N-(2-morpholinopyrimidin-4-yl)-1H-indazol-5-amine]",IC50,[1],> 10000 nM
"Fc1cnc(N2CC(C3CCNCC3)c3ccccc32)nc1Nc1ccc2[nH]ncc2c1 (stereo not shown) [Example 175, N-(5-fluoro-2-(3-(piperidin-4-yl)indolin-1-yl)pyrimidin-4-yl)-1H-indazol-5-amine]",inhibition at 1 µM,[1],10.5%
"OC1CC2CCC(C1)N2c1nccc(Nc2ccc3[nH]ncc3c2)n1 (stereo not shown) [Example 223, 8-(4-((1H-indazol-5-yl)amino)pyrimidin-2-yl)-8-azabicyclo[3.2.1]octan-3-ol]",IC50,[1],15.8 nM
"c1ccc(C2CN(c3nccc(Nc4ccc(-c5cn[nH]c5)cc4)n3)CCN2)cc1 (stereo not shown) [Example 260, N-(4-(1H-pyrazol-4-yl)phenyl)-2-(3-phenylpiperazin-1-yl)pyrimidin-4-amine]",inhibition at 10 µM,[2]; 10 μM compound,18%
"c1cc(-c2cn[nH]c2)ccc1Nc1nc(N2CCCNCC2)nc2c1COC2 [Example 262, N-(4-(1H-pyrazol-4-yl)phenyl)-2-(1,4-diazepan-1-yl)-5,7-dihydrofuro[3,4-d]pyrimidin-4-amine]",inhibition at 10 µM,[2]; 10 μM compound,87%
same,IC50,[2],3650 nM
"Cc1nc(N2CCCNCC2)nc(Nc2ccc(-c3cn[nH]c3)cc2)c1C [Example 266, N-(4-(1H-pyrazol-4-yl)phenyl)-2-(1,4-diazepan-1-yl)-5,6-dimethylpyrimidin-4-amine]",inhibition at 10 µM,[2]; 10 μM compound,74%
same,IC50,[2],3150 nM
"c1ccc2c(Nc3ccc(-c4cn[nH]c4)cc3)nc(N3CCCNCC3)nc2c1 [Example 268, N-(4-(1H-pyrazol-4-yl)phenyl)-2-(1,4-diazepan-1-yl)quinazolin-4-amine]",inhibition at 10 µM,[2]; 10 μM compound,63.7%
same,IC50,[2],3720 nM
"c1cc(-c2ccc(Nc3nc(N4C5CNCC4C5)nc4c3CNC4)cc2)ccn1 [Example 292, 2-(3,6-diazabicyclo[3.1.1]heptan-6-yl)-N-(4-(pyridin-4-yl)phenyl)-6,7-dihydro-5H-pyrrolo[3,4-d]pyrimidin-4-amine]",inhibition at 0.5 µM,[1],10%
"Cc1c(Nc2nc(N3C4CNCC3C4)ncc2Cl)ccc2[nH]ncc12 [Example 293, N-(2-(3,6-diazabicyclo[3.1.1]heptan-6-yl)-5-chloropyrimidin-4-yl)-4-methyl-1H-indazol-5-amine]",inhibition at 0.5 µM,[1],1%
"Cc1c(Nc2nc(N3C4CCC3CNC4)ncc2Cl)ccc2[nH]ncc12 [Example 294, N-(2-(3,8-diazabicyclo[3.2.1]octan-8-yl)-5-chloropyrimidin-4-yl)-4-methyl-1H-indazol-5-amine]",inhibition at 0.5 µM,[1],0%
"c1cc(-c2ccc(Nc3nc(N4C5CNCC4C5)nc4c3COCC4)cc2)ccn1 [Example 311, 2-(3,6-diazabicyclo[3.1.1]heptan-6-yl)-N-(4-(pyridin-4-yl)phenyl)-7,8-dihydro-5H-pyrano[4,3-d]pyrimidin-4-amine]",IC50,[1],> 1000 nM
"c1cc(-c2ccc(Nc3nc(N4C5CNCC4C5)nc4c3COC4)cc2)ccn1 [Example 312, 2-(3,6-diazabicyclo[3.1.1]heptan-6-yl)-N-(4-(pyridin-4-yl)phenyl)-5,7-dihydrofuro[3,4-d]pyrimidin-4-amine]",IC50,[1],> 1000 nM
"Cc1cc2[nH]ncc2cc1Nc1nc(N2C3CCC2CNC3)ncc1Cl [Example 318, N-(2-(3,8-diazabicyclo[3.2.1]octan-8-yl)-5-chloropyrimidin-4-yl)-6-methyl-1H-indazol-5-amine]",inhibition at 0.5 µM,[1],50%
"Clc1cnc(N2CC3CNCC(C2)O3)nc1Nc1ccc2[nH]ncc2c1 [Example 325, N-(2-((1,5)-9-oxa-3,7-diazabicyclo[3.3.1]nonan-3-yl)-5-chloropyrimidin-4-yl)-1H-indazol-5-amine]",inhibition at 0.5 µM,[1],25%
"c1ccc2c(Nc3ccc4[nH]ncc4c3)nc(N3C4CCC3CNC4)nc2c1 [Example 330, 2-(3,8-diazabicyclo[3.2.1]octan-8-yl)-N-(1H-indazol-5-yl)quinazolin-4-amine]",IC50,[1],11 nM
"CN(C)C1CC2CC1CN2c1ncc(F)c(Nc2ccc3[nH]ncc3c2)n1 (stereo not shown) [Example 335, N-(2-(5-(dimethylamino)-2-azabicyclo[2.2.1]heptan-2-yl)-5-fluoropyrimidin-4-yl)-1H-indazol-5-amine]",IC50,[1],> 1000 nM
"CN(C)C1CC2CCC(C1)N2c1nccc(Nc2ccc3[nH]ncc3c2)n1 (stereo not shown) [Example 337, N-(2-(3-(dimethylamino)-8-azabicyclo[3.2.1]octan-8-yl)pyrimidin-4-yl)-1H-indazol-5-amine]",IC50,[1],> 1000 nM
"c1cc(Nc2ccnc(N3CCNCC3)n2)cc(-c2ccncc2)c1 [Example 345, 2-(piperazin-1-yl)-N-(3-(pyridin-4-yl)phenyl)pyrimidin-4-amine]",inhibition at 10 µM,[2]; 10 μM compound,23.7%
"O=c1ccc(-c2ccc(Nc3ccnc(N4CCNCC4)n3)cc2)c[nH]1 [Example 349, 5-(4-((2-(piperazin-1-yl)pyrimidin-4-yl)amino)phenyl)pyridin-2(1H)-one]",inhibition at 10 µM,[2]; 10 μM compound,4.21%
"Nc1nnc(-c2ccc(Nc3ccnc(N4CCNCC4)n3)cc2)o1 [Example 362, 5-(4-((2-(piperazin-1-yl)pyrimidin-4-yl)amino)phenyl)-1,3,4-oxadiazol-2-amine]",inhibition at 10 µM,[2]; 10 μM compound,5.14%
c1cc(Nc2ccc(-c3cncs3)cc2)nc(N2CCNCC2)n1 [Example 363],pMLC % inh A7R5 @ [conc],"[2]; A7R5 cells, 10 μM compound",10.22%
"O=c1[nH]c2ccc(Nc3ccnc(N4CCNCC4)n3)cc2[nH]1 [Example 364, 5-((2-(piperazin-1-yl)pyrimidin-4-yl)amino)-1,3-dihydro-2H-benzo[d]imidazol-2-one]",inhibition at 10 µM,[2]; 10 μM compound,6.18%
"c1cc(Nc2ccc(-c3ccnc4[nH]cnc34)cc2)nc(N2CCNCC2)n1 [Example 366, N-(4-(3H-imidazo[4,5-b]pyridin-7-yl)phenyl)-2-(piperazin-1-yl)pyrimidin-4-amine]",inhibition at 10 µM,[2]; 10 μM compound,4.95%
"c1cc(Nc2ccc(-c3nnco3)cc2)nc(N2CCNCC2)n1 [Example 367, N-(4-(1,3,4-oxadiazol-2-yl)phenyl)-2-(piperazin-1-yl)pyrimidin-4-amine]",inhibition at 10 µM,[2]; 10 μM compound,7.2%
"c1cc(Nc2cnc3[nH]ccc3c2)nc(N2CCNCC2)n1 [Example 369, N-(2-(piperazin-1-yl)pyrimidin-4-yl)-1H-pyrrolo[2,3-b]pyridin-5-amine]",inhibition at 10 µM,[2]; 10 μM compound,0.9%
